The record followed here is patent US10160747B2, “Compounds and methods for kinase modulation, and indications therefor” (Plexxikon Inc., priority 2016, dated 2018).

Each structure is given as a SMILES string.

Assay [1] deals with MOLM-14 F691L (endogenous FLT3 ITD and transfected FLT3 F691L). Kind of assay: MOLM-14 F691L cell proliferation assay (CellTiter-Glo). Particulars: Homo sapiens, MOLM-14, 72 h; 3 d growth, GMean. In kind it is cell-based. An outline of the steps:
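Three-day proliferation at 37 °C/5% CO2 of FLT3-ITD MOLM-14 lines with D835Y or F691L mutation, seeded 1×10^4 per well. Compounds at eight points, top 1 μM final, 0.2% DMSO. ATP luminescence (CellTiter-Glo) gives IC50.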
(Cellular ATP, detected with luciferase, serves as a proxy for viable cell number.)

The target in another assay is T1, c-KIT (Homo sapiens, UniProt P10721).
T1 construct: purchased Millipore 14-559K
T1 sequence (P10721 26-976): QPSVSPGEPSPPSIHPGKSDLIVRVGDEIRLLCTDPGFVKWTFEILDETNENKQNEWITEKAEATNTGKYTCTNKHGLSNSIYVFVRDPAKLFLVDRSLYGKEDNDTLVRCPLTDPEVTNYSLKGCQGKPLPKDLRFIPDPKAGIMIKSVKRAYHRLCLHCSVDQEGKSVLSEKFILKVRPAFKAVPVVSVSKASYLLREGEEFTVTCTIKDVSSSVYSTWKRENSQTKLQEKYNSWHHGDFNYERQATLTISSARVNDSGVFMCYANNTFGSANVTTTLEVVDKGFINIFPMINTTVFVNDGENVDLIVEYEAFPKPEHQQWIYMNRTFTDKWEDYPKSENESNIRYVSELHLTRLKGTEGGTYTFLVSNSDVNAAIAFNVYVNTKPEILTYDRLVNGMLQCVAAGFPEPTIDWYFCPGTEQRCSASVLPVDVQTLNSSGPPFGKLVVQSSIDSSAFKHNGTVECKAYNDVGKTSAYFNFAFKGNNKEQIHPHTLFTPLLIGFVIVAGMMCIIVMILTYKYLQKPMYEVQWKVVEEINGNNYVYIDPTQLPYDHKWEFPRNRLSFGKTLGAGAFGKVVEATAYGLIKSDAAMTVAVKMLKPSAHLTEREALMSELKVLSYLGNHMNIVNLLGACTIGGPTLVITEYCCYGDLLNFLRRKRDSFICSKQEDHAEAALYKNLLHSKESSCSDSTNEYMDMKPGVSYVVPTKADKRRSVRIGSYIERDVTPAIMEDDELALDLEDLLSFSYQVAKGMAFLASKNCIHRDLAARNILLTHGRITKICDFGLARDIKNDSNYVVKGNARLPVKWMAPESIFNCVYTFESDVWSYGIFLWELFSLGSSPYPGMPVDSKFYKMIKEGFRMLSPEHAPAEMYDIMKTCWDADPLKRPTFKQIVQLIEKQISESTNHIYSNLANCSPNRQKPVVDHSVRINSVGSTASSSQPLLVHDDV
Nature of the assay: c-KIT recombinant enzyme kinase assay (AlphaScreen). Particulars: 100 ATP, 8 pt. In kind it is biochemical. The essentials:
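IC50 values are derived from reduced AlphaScreen signal as inhibitors block tyrosine phosphorylation of a biotinylated poly(Glu4-Tyr) peptide (30 nM) by recombinant kinase. FLT3 variants are run at 10 μM ATP, c-KIT at 100 μM.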

One may read the IC50 as the midpoint of a concentration-inhibition curve.

With `COc1nn(C[C@H](C)O)cc1Nc1ncc(-c2ccc(CC(=O)Nc3cnc(C)c(C(F)(F)F)c3)cc2)cn1` [Compound P-0180, 2-[4-[2-[[1-[(2S)-2-hydroxypropyl]-3-methoxy-pyrazol-4-yl]amino]pyrimidin-5-yl]phenyl]-N-[6-methyl-5-(trifluoromethyl)-3-pyridyl]acetamide], the IC50 (in assay [1]; at c-KIT) was 0.0001 to 10 µM in each case.
With `Cc1ncc(NC(=O)Cc2ccc(-c3cnc(Nc4cnn(C)c4)nc3)cc2F)cc1C(F)(F)F` [Compound P-0091, 2-[2-fluoro-4-[2-[(1-methylpyrazol-4-yl)amino]pyrimidin-5-yl]phenyl]-N-[6-methyl-5-(trifluoromethyl)-3-pyridyl]acetamide], the IC50 (in assay [1]; on c-KIT) was 0.0001 to 10 µM each time.
Consider `O=C(Cc1ccc(-c2cnc3[nH]c(-c4ccc(N5CCOCC5)nc4)cc3c2)c(F)c1)Nc1cncc(C(F)(F)F)c1` [Compound P-0198, 2-[3-fluoro-4-[2-(6-morpholino-3-pyridyl)-1H-pyrrolo[2,3-b]pyridin-5-yl]phenyl]-N-[5-(trifluoromethyl)-3-pyridyl]acetamide], for which the IC50 (in assay [1]; on c-KIT) was 0.0001 to 10 µM each time.
As for `COc1ncc(NC(=O)Cc2ccc(-c3cnc(Nc4cnn(C)c4)nc3)cc2)cc1C(F)(F)F` [Compound P-0138, N-[6-methoxy-5-(trifluoromethyl)-3-pyridyl]-2-[4-[2-[(1-methylpyrazol-4-yl)amino]pyrimidin-5-yl]phenyl]acetamide], the IC50 (in assay [1]; at c-KIT) was 0.0001 to 10 µM in each case.
